Structures are written as SMILES. Where two headings read alike, the source gives them in different places.

The target of test [1] is T1, Full length WRN protein (aa 2-1432) (Homo sapiens (Human), UniProt Q14191). Kind of test: WRN ATPase ADP-Glo biochemical assay, Assay Format A (10 μM ATP). Conditions: 0.25 nM WRN, 100 nM C6.18 ssDNA, 30 min preincubation, read-out: ATPase ADPGlo AC50 (uM)- Assay Format A. The method in brief:
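Sf9-expressed FLAG-AVI-TEV-tagged WRN (0.5 nM) preincubated 30 min with compound (11-point 3-fold dilution). Reaction started with 200 nM C6.18 39-mer ssDNA and 20 μM ATP (addition concentrations), run 30 min at room temperature. ADP measured by ADP-Glo luminescence; IC50 from four-parameter fit, geometric mean of ≥2 runs.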

Test [2] has as its target T1, Full length WRN protein (aa 2-1432). Nature of the test: WRN ATPase ADP-Glo biochemical assay, Assay Format B (100 μM ATP). Conditions: 0.25 nM WRN, 100 nM C6.18 ssDNA, 60 min preincubation, read-out: ATPase ADPGlo AC50 (uM)- Assay Format B.
The test system of test [3] is HT29 cells. Nature of the test: HT29 (MSS) 7 day viability, CellTiter Glo. The class given is cell-based. Conditions: 7 days, read-out: HT29 (MSS) Viability 7 Day CTGAbs AC50. The method in brief:
(§1)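 Luminescence read-out (CellTiter Glo) after 7-day compound exposure at 37 °C. Seeding density 50 cells/well for HCT116, 500 cells/well for HT29. Background from cell-free medium wells; IC50 by four-parameter logistic fit, geometric mean of at least 2 replicates.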

The test system of test [4] is HCT116 cells. Nature of the test: HCT116 (MSI) 7 day viability, CellTiter Glo. Type of test: cell-based. Conditions: 7 days, read-out: HCT116 (MSI) Viability 7 Day Abs AC50. The method in brief:
as §1

T1 sequence (Q14191 2-1432): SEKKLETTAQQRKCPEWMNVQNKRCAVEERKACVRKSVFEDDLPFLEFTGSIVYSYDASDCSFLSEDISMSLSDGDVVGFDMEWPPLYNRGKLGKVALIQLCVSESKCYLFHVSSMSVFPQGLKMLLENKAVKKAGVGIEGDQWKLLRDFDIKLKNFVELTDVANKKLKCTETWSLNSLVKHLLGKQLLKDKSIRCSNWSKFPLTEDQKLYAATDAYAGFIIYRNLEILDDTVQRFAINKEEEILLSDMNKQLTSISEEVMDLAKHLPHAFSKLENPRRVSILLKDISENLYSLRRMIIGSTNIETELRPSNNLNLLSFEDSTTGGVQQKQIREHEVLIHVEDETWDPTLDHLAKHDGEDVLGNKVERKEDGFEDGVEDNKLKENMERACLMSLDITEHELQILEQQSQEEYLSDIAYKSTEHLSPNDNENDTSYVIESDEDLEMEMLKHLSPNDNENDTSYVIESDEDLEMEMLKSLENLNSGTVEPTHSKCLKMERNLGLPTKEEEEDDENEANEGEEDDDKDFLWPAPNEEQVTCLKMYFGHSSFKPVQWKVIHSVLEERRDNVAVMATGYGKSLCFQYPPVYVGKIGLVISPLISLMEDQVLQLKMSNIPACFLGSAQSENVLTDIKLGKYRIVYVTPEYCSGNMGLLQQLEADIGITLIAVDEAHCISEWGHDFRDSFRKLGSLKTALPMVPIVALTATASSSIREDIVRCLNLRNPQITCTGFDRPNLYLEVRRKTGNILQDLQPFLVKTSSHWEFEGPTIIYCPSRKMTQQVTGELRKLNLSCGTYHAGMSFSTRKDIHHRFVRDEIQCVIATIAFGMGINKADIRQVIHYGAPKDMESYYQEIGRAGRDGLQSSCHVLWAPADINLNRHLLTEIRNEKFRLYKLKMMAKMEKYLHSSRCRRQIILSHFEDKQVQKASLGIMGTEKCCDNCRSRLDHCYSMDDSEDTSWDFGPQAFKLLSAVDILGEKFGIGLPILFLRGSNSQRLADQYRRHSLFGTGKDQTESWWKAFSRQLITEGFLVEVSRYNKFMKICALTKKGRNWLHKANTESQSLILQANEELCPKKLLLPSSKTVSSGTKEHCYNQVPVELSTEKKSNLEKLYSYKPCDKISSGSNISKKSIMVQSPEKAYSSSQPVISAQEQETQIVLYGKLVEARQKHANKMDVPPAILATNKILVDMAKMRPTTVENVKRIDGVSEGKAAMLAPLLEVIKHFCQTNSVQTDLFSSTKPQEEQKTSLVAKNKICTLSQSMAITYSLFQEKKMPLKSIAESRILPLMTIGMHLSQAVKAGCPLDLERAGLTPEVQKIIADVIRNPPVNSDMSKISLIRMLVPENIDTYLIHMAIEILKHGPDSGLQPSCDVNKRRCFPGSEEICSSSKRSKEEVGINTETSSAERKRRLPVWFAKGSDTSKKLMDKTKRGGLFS

For `C=CC(=O)N1CC(O)c2nn(-c3ccc(C4CCC4)cc3)c3c2C(C1)N(C(=O)c1ccc(Br)c2[nH]c(C(F)F)nc12)CC3` (centres unmarked) [Compound 160, 1-(5-(7-bromo-2-(difluoromethyl)-1H-benzo[d]imidazole-4-carbonyl)-2-(4-cyclobutylphenyl)-9-hydroxy-2,3,4,5,5a,6,8,9-octahydro-7H-1,2,5,7-tetraazabenzo[cd]azulen-7-yl)prop-2-en-1-one], the concentration at half-maximal activity (AC50) in test [1] is under 0.0015 µM; in test [2], 0.0015 to 0.005 µM; in test [3] (Homo sapiens, HT-29, 168 h), over 3000 nM; in test [4] (Homo sapiens, HCT-116, 168 h) it was 1 to 100 nM.

On to `C=CC(=O)N1CCc2nn(-c3ccc(C4CCC4)cc3)c3c2C(C1)N(C(=O)c1cnc(C(F)(F)F)nc1N)CC3` (centres unmarked) [Compound 161, 1-(5-(4-amino-2-(trifluoromethyl)pyrimidine-5-carbonyl)-2-(4-cyclobutylphenyl)-2,3,4,5,5a,6,8,9-octahydro-7H-1,2,5,7-tetraazabenzo[cd]azulen-7-yl)prop-2-en-1-one], for which the AC50 in test [1] is under 0.0015 µM; in test [2], 0.005 to 0.015 µM; in test [3] (Homo sapiens, HT-29, 168 h), over 3000 nM; in test [4] (Homo sapiens, HCT-116, 168 h) it was 1 to 100 nM.

As for `C=CC(=O)N1CCc2nn(-c3ccc(C4CC4)cc3)c3c2C(C1)N(C(=O)c1cnc(Cl)cc1N)CC3` (centres unmarked) [Compound 162, 1-(5-(4-amino-6-chloronicotinoyl)-2-(4-cyclopropylphenyl)-2,3,4,5,5a,6,8,9-octahydro-7H-1,2,5,7-tetraazabenzo[cd]azulen-7-yl)prop-2-en-1-one], the AC50 was under 0.0015 µM in test [1], 0.005 to 0.015 µM in test [2], over 3000 nM in test [3] and 1 to 100 nM in test [4].

With `C=CC(=O)N1CCc2nn(-c3ccc(C4CC4)cc3O)c3c2C(C1)N(C(=O)c1cnc(C(F)(F)F)cc1N)CC3` (centres unmarked) [Compound 163, 1-(5-(4-amino-6-(trifluoromethyl)nicotinoyl)-2-(4-cyclopropyl-2-hydroxyphenyl)-2,3,4,5,5a,6,8,9-octahydro-7H-1,2,5,7-tetraazabenzo[cd]azulen-7-yl)prop-2-en-1-one], the AC50 in test [1] is under 0.0015 µM; in test [2] it was 0.005 to 0.015 µM; in test [3] (Homo sapiens, HT-29, 168 h) it was over 3000 nM; in test [4] (Homo sapiens, HCT-116, 168 h) it was 1 to 100 nM.

For the compound `C=CC(=O)N1CCc2nn(-c3ccc(C4CC4)cc3)c3c2C(C1)N(C(=O)c1cnc(Br)cc1N)CC3` (centres unmarked) [Compound 166, 1-(5-(4-amino-6-bromonicotinoyl)-2-(4-cyclopropylphenyl)-2,3,4,5,5a,6,8,9-octahydro-7H-1,2,5,7-tetraazabenzo[cd]azulen-7-yl)prop-2-en-1-one], the concentration at half-maximal activity (AC50) is under 0.0015 µM in test [1]; 0.005 to 0.015 µM in test [2]; over 3000 nM in test [3] (Homo sapiens, HT-29, 168 h); 1 to 100 nM in test [4] (Homo sapiens, HCT-116, 168 h).

On to `C=CC(=O)N1CCc2nn(-c3ccc(C4CC4)cc3)c3c2C(C1)N(C(=O)c1ccc(Cl)nc1N)CC3` (centres unmarked) [Compound 167, 1-(5-(2-amino-6-chloronicotinoyl)-2-(4-cyclopropylphenyl)-2,3,4,5,5a,6,8,9-octahydro-7H-1,2,5,7-tetraazabenzo[cd]azulen-7-yl)prop-2-en-1-one], for which the concentration at half-maximal activity (AC50) in test [1] is under 0.0015 µM; in test [2], 0.015 to 0.055 µM; in test [3] (Homo sapiens, HT-29, 168 h), over 3000 nM; in test [4] (Homo sapiens, HCT-116, 168 h) it was 1 to 100 nM.

In the case of `C=CC(=O)N1CCc2nn(-c3ccc(C(C)C)cc3O)c3c2C(C1)N(C(=O)c1ccc(Br)c2[nH]c(C(F)F)nc12)CC3` (centres unmarked) [Compound 174, 1-(5-(7-bromo-2-(difluoromethyl)-1H-benzo[d]imidazole-4-carbonyl)-2-(2-hydroxy-4-isopropylphenyl)-2,3,4,5,5a,6,8,9-octahydro-7H-1,2,5,7-tetraazabenzo[cd]azulen-7-yl)prop-2-en-1-one], the AC50 is under 0.0015 µM in test [1]; 0.0015 to 0.005 µM in test [2]; over 3000 nM in test [3] (Homo sapiens, HT-29, 168 h); 1 to 100 nM in test [4] (Homo sapiens, HCT-116, 168 h).

On to `C=CC(=O)N1CCc2nn(-c3ccc(C4CC4)cc3)c3c2C(C1)N(C(=O)c1cnc(C(F)(F)F)c(F)c1N)CC3` (centres unmarked) [Compound 178, 1-(5-(4-amino-5-fluoro-6-(trifluoromethyl)nicotinoyl)-2-(4-cyclopropylphenyl)-2,3,4,5,5a,6,8,9-octahydro-7H-1,2,5,7-tetraazabenzo[cd]azulen-7-yl)prop-2-en-1-one], for which the AC50 in test [1] is under 0.0015 µM; in test [2], 0.005 to 0.015 µM; in test [3] (Homo sapiens, HT-29, 168 h), over 3000 nM; in test [4] (Homo sapiens, HCT-116, 168 h), 1 to 100 nM.

`C=CC(=O)N1CCc2nn(-c3ccc(C4CC4)cc3)c3c2C(C1)N(C(=O)c1cnc(Cl)c(F)c1N)CC3` (centres unmarked) [Compound 181, 1-(5-(4-amino-6-chloro-5-fluoronicotinoyl)-2-(4-cyclopropylphenyl)-2,3,4,5,5a,6,8,9-octahydro-7H-1,2,5,7-tetraazabenzo[cd]azulen-7-yl)prop-2-en-1-one]: the AC50 was under 0.0015 µM in test [1]; 0.0015 to 0.005 µM in test [2]; over 3000 nM in test [3] (Homo sapiens, HT-29, 168 h); 1 to 100 nM in test [4] (Homo sapiens, HCT-116, 168 h).

Take `C=CC(=O)N1CCc2nn(-c3ccc(C4CC4)cc3)c3c2C(C1)N(C(=O)c1cnc(Br)c(F)c1N)CC3` (centres unmarked) [Compound 182, 1-(5-(4-amino-6-bromo-5-fluoronicotinoyl)-2-(4-cyclopropylphenyl)-2,3,4,5,5a,6,8,9-octahydro-7H-1,2,5,7-tetraazabenzo[cd]azulen-7-yl)prop-2-en-1-one]: the AC50 in test [1] was under 0.0015 µM; in test [2], 0.0015 to 0.005 µM; in test [3] (Homo sapiens, HT-29, 168 h) it was over 3000 nM; in test [4] (Homo sapiens, HCT-116, 168 h), 1 to 100 nM.

Turning to `C=CC(=O)N1CCc2nn(-c3ccc(C4CC4)cc3)c3c2C(C1)N(C(=O)c1cnc(C(C)(F)F)cc1N)CC3` (centres unmarked) [Compound 183, 1-(5-(4-amino-6-(1,1-difluoroethyl)nicotinoyl)-2-(4-cyclopropylphenyl)-2,3,4,5,5a,6,8,9-octahydro-7H-1,2,5,7-tetraazabenzo[cd]azulen-7-yl)prop-2-en-1-one], the AC50 in test [1] is under 0.0015 µM; in test [2] it was 0.0015 to 0.005 µM; in test [3] (Homo sapiens, HT-29, 168 h), over 3000 nM; in test [4] (Homo sapiens, HCT-116, 168 h) it was 1 to 100 nM.

Regarding `C=CC(=O)N1CC(O)c2nn(-c3ccc(C4CC4)cc3)c3c2C(C1)N(C(=O)c1cnc(C(F)(F)F)cc1N)CC3` (centres unmarked) [Compound 184, 1-(5-(4-amino-6-(trifluoromethyl)nicotinoyl)-2-(4-cyclopropylphenyl)-9-hydroxy-2,3,4,5,5a,6,8,9-octahydro-7H-1,2,5,7-tetraazabenzo[cd]azulen-7-yl)prop-2-en-1-one], the AC50 in test [1] is under 0.0015 µM; in test [2], 0.005 to 0.015 µM; in test [3] (Homo sapiens, HT-29, 168 h), over 3000 nM; in test [4] (Homo sapiens, HCT-116, 168 h), 1 to 100 nM.

Regarding `C=CC(=O)N1CCc2nn(-c3ccc(C4CC4)cc3)c3c2C(C1)N(C(=O)c1c(N)cc(C(F)(F)F)nc1N)CC3` (centres unmarked) [Compound 186, 1-(2-(4-cyclopropylphenyl)-5-(2,4-diamino-6-(trifluoromethyl)nicotinoyl)-2,3,4,5,5a,6,8,9-octahydro-7H-1,2,5,7-tetraazabenzo[cd]azulen-7-yl)prop-2-en-1-one], the AC50 was under 0.0015 µM in test [1]; 0.005 to 0.015 µM in test [2]; over 3000 nM in test [3] (Homo sapiens, HT-29, 168 h); 1 to 100 nM in test [4] (Homo sapiens, HCT-116, 168 h).

Regarding `C=CC(=O)N1CC(OC)c2nn(-c3ccc(C4CC4)cc3)c3c2C(C1)N(C(=O)c1cnc(C(F)(F)F)cc1N)CC3` (centres unmarked) [Compound 187, 1-(5-(4-amino-6-(trifluoromethyl)nicotinoyl)-2-(4-cyclopropylphenyl)-9-methoxy-2,3,4,5,5a,6,8,9-octahydro-7H-1,2,5,7-tetraazabenzo[cd]azulen-7-yl)prop-2-en-1-one], the concentration at half-maximal activity (AC50) is under 0.0015 µM in test [1]; 0.005 to 0.015 µM in test [2]; over 3000 nM in test [3] (Homo sapiens, HT-29, 168 h); 1 to 100 nM in test [4] (Homo sapiens, HCT-116, 168 h).

For `C=CC(=O)N1CC(C)c2nn(-c3ccc(C4CC4)cc3O)c3c2C(C1)N(C(=O)c1cnc(C(F)(F)F)cc1N)CC3` (centres unmarked) [Compound 189, 1-(5-(4-amino-6-(trifluoromethyl)nicotinoyl)-2-(4-cyclopropyl-2-hydroxyphenyl)-9-methyl-2,3,4,5,5a,6,8,9-octahydro-7H-1,2,5,7-tetraazabenzo[cd]azulen-7-yl)prop-2-en-1-one], the half-maximal activity concentration (AC50) was under 0.0015 µM in test [1]; 0.005 to 0.015 µM in test [2]; over 3000 nM in test [3] (Homo sapiens, HT-29, 168 h); 1 to 100 nM in test [4] (Homo sapiens, HCT-116, 168 h).

With `C=CC(=O)N1CCc2nn(-c3ccc(C4CC4)cc3O)c3c2C(C1)N(C(=O)c1cnc(OC(F)F)cc1N)CC3` (centres unmarked) [Compound 192, 1-(5-(4-amino-6-(difluoromethoxy)nicotinoyl)-2-(4-cyclopropyl-2-hydroxyphenyl)-2,3,4,5,5a,6,8,9-octahydro-7H-1,2,5,7-tetraazabenzo[cd]azulen-7-yl)prop-2-en-1-one], the concentration at half-maximal activity (AC50) in test [1] is under 0.0015 µM; in test [2] it was 0.005 to 0.015 µM; in test [3] (Homo sapiens, HT-29, 168 h) it was over 3000 nM; in test [4] (Homo sapiens, HCT-116, 168 h) it was 1 to 100 nM.

Take `C=CC(=O)N1CCc2nn(-c3ccc(C4CC4)cc3O)c3c2C(C1)N(C(=O)c1ccc(Br)nc1N)CC3` (centres unmarked) [Compound 193, 1-(5-(2-amino-6-bromonicotinoyl)-2-(4-cyclopropyl-2-hydroxyphenyl)-2,3,4,5,5a,6,8,9-octahydro-7H-1,2,5,7-tetraazabenzo[cd]azulen-7-yl)prop-2-en-1-one]: the AC50 in test [1] is under 0.0015 µM; in test [2] it was 0.005 to 0.015 µM; in test [3] (Homo sapiens, HT-29, 168 h), over 3000 nM; in test [4] (Homo sapiens, HCT-116, 168 h), 1 to 100 nM.
